# Data published in PMC10986512 (Microbiology Spectrum, 2024).
# “And” between values parts separate entries of the source, which are not always exact repeats. Equal entries are not always repeated. Where two headings read alike, the source gives them in different places.
# Tests used:
# VACV [1] = experiment: microbe, parasite or virus in culture; format: cell-based, vaccinia virus (Western Reserve strain); details: for EC50: Orthopoxvirus vaccinia
# in vitro [2] = experiment: in vitro
# MPXV = format: cell-based, Mpox virus (West African clade US2003, clade IIa)
# RPXV = experiment: microbe, parasite or virus in culture; format: cell-based; details: Rabbitpox virus, RAW264.7
# [3] = rat, in vivo; cited from earlier work
# VACV [4] = format: in vivo, BALB/c mice; details: 21 days
# [5] = dog, in vivo; cited from earlier work
# in vitro [6] = details: mouse, plasma
# in vivo = details: C57BL/6, mouse
# [7] = test system: NS5B-mediated replication of hepatitis C virus RNA; details: cited from earlier work
# CPXV = experiment: microbe, parasite or virus in culture; format: cell-based, cowpox virus (Brighton Red strain); details: Cowpox virus
# VACV [8] = test system: VACV; parameters: species or system BALB/c mice; details: mouse, in vivo
# VACV [9] = test system: VACV; parameters: species or system BALB/c mice; details: mouse, in vivo; remark: listed apart in the source
# physchem = details: pH 7.4, aqueous buffer
smiles,measurement,setting,value
O=C(NN1C(=O)[C@@H]2[C@@H]3C=C[C@@H]([C@H]4C[C@@H]34)[C@@H]2C1=O)c1ccc(C(F)(F)F)cc1 [ST-246],SI,VACV [1],>750 and >666.7
same,EC50,VACV [1],1 to 10 nM
same,CC50,in vitro [2],> 30000 nM
same,SI,MPXV,>2189.8
"C[C@@]1(O)[C@H](O)[C@@H](CO)O[C@H]1n1cc(F)c2c(N)ncnc21 [UMM-766, 7-fluoro-7-deaza-2′-C-methyladenosine]",EC50 and EC90 in MRC5 cells relative to RAW cells,VACV [1],3- to 15 fold
same,EC50,VACV [1],< 1000 nM
same,EC50,RPXV,< 1000 nM
same,highest tolerable dose,[3],10 mg/kg
same,survival,VACV [4],66.7% and 80% and 100%
same,highest tolerable dose,[5],10 mg/kg
same,fraction unbound,in vitro [6],0.844
same,bioavailability,in vivo,48.8%
same,clearance,in vivo,154 mL/min/kg
same,half-life,in vivo,2.9 h
same,effect on NS5B-mediated replication of hepatitis C virus RNA,[7],decrease NS5B-mediated replication of hepatitis C virus RNA by chain termination
same,EC50,CPXV,2170 nM
same,EC50,CPXV; MRC5,8090 nM
same,IHC labeling in nasal cavity/turbinates,VACV [8],minimal or absent labeling
same,hemorrhage in the olfactory bulb,VACV [8],completely absent
same,meningeal necrosis in the olfactory bulb,VACV [8],absent in two 3-mg/kg animals and two 10-mg/kg animals
same,"necrosis of the olfactory epithelium (nasal cavity, H&E)",VACV [8],two animals having minimal necrosis and two with moderate necrosis
same,severity of IHC labeling in nasal cavity/turbinates,VACV [8],markedly reduced
same,severity/degree of IHC labeling in the lung,VACV [8],mostly mild
same,IHC labeling in nasal cavity/turbinates,VACV [8]; 10 mg/kg,labeling was absent
same,animals that met euthanasia criteria or died,VACV [9],two
same,maximum percentage weight change,VACV [9],−30.5% and −29.3% and −24.4%
same,median survival,VACV [9],8 days
same,solubility,physchem,3300 µg/mL
